{"source": "patent US5360796A", "about": "“Imidazo[1,2-a]pyridinylalkyl phosphonic acid compounds for treatment of neurotoxic injury” (G. D. Searle & Co., priority 1991, dated 1994)", "key": {"[1]": {"tested_on": "tonic hindlimb extensor seizures", "experiment": "Anticonvulsant Assay (electroconvulsive shock)", "format": "in vivo, mouse (CD-1)", "settings": "for Protected from ECS (% of Mice): 30 min prior to ECS", "description": "The screens were then slowly inverted. […] The current was held constant at 15 mA. […] There were 10 mice in each treatment group."}, "AMPA": {"target": "AMPA", "experiment": "[3H]AMPA (QUIS) binding assay", "set-up": "species or system rat", "settings": "10 nM [3H]AMPA, 100 mM KSCN, synaptic plasma membranes, pH 7.4, 0-4° C., 10 min; read-out: NMDA Receptor Binding Data, Ki IC50 Binding AMPA", "experimental": "Synaptic plasma membranes (SPM) were prepared as previously described [Monahah, J. B. and Michel, J., \"Identification and Characterization of an N-methyl-D-aspartate-specific L[^3 H]glutamate Recognition Site in Synaptic Plasma Membranes, J. Neurochem., 48, 1699-1708 (1987)]. The SPM were stored at a concentration of 10-15 mg/ml in 0.32M sucrose, 0.5 mM EDTA, 1 mM MgSO4, 5 mM Tris/SO4, pH 7.4, under liquid nitrogen. The identity and purity of the subcellular fractions were confirmed by both electron microscopy and marker enzymes. Protein concentrations were determined by using a modification of the method of Lowry [Ohnishi, S. T. and Barr, J. K., \"A Simplified Method of Quantitating Proteins using the Biuret and Phenol Reagents\", Anal. Biochem., 86, 193-197 (1978)]. The SPM were treated identically for the [^3 H]AMPA (QUIS), [^3 H]kainate and sodium-dependent L-[^3 H]-glumatate binding assays. The SPM were thawed at room temperature, diluted twenty-fold with 50mM Tris/acetate, pH 7.4, incubated at 37° C. for 30 minutes, and centrifuged at 100,000 g for 15 minutes. The dilution, incubation, and centrifugation was repeated a total of three times. Prior to use in the NMDA-specific L-[^3 H]-glutamate binding assay the SPM were thawed, diluted twenty fold with 50 mM Tris/acetate, pH 7.4 containing 0.04% (v/v) Triton X-100, incubated for 30 minutes at 37° C. and centrifuged as described above. The Triton X-100 treated membranes were washed with 50 mM Tris/acetate, pH 7.4 and centrifuged at 100,000 g for 15 minutes a total of four times. […] The basic procedure for the receptor subclass binding assays was similar. This general method involved adding the radioligand (12.5 nM L-[^3 H] glutamate; 0.5 nM [^3 H]kainate or 10 nM [^3 H]AMPA) to the appropriate concentration of the test compound and initiating the assay by the addition of ice cold synaptic plasma membranes (0.2-0.45 mg). The binding assays were performed in 1.5 mL centrifuge tubes with the total volume adjusted to 1.0 mL. Additions of test compounds were made in 50 mM Tris/acetate, pH 7.4 and incubations were carried out at 0°-4° C. The incubation time for the NMDA and the AMPA binding assays was 10 minutes, for the kainate binding assay 60 minutes and for the sodium-dependent glutamate binding assay 15 minutes. The AMPA binding assay contained 100 mM KSCN and the sodium-dependent glutamate binding assay contained 150 mM sodium acetate in addition to the previously described reagents. To terminate the incubation, the samples were centrifuged for 15 minutes at 12,000 g and 4° C. in a Beckman Microfuge 12. The supernatant was aspirated and the pelleted membranes dissolved in Beckman BTS-450 tissue solubilizer for a minimum of 6 hours at room temperature. Beckman MP scintillation cocktail containing 7 mL/1 acetic acid was then added and the samples counted on a Beckman LS 5800 or 3801 liquid scintillation counter with automatic corrections for quenching and counting efficiency. Nonspecific binding was defined as the residual binding in the presence of either excess L-glutamate (0.1-0.4 mM), kainate (0.01 mM), or NMDA (0.5 mM), and was 15-25% of the total binding in the NMDA binding assay, 19-27% in the AMPA binding assay, 20-30% in the kainate binding assay and 10-15% in the sodium-dependent binding assay. Radioligand binding to the synaptic plasma membranes was analyzed using Scatchard and Hill transformations and the Ki values of the compounds determined using logit-log transformations. Calculations and regression analysis were performed using templates developed for Lotus 1, 2, 3 as previously described [Pullan, L. M. \"Automated Radioligand Receptor Binding Analysis with Templates for Lotus\", Computer Appln. Biosci., 3, 131 (1987)]. Binding results are reported in Table I for example compounds of the invention."}, "cGMP in cerebellum": {"tested_on": "cGMP in cerebellum", "experiment": "Assay for Effect on cGMP Levels in Cerebellum", "format": "in vivo, mouse (Swiss-Webster)", "experimental": "The purpose of this assay is to determine the extent of in vivo bioavailability and the potency as an NMDA antagonist of compound of the invention as compared to known NMDA antagonists, namely, 3(2-carboxypiperizine-4-yl)propyl-1-phosphonic acid (CPP) and cis-4-phosphonomethyl-2-piperidinecarboxylic acid (CGS 19755). Male Swiss-Webster mice (17-24 g were injected sub-cutaneously (s.c.) with compound of the invention and the known NMDA antagonist standards 30 minutes prior to sacrifice by focussed microwave irradiation. Groups consisted of 7-10 mice. Compounds of Ex. #7 was dissolved in isotonic saline and all compounds were administered in a volume of 0.2 ml per mouse. Cerebella samples were extracted in IN HCl. Hydrochloric acid in extracts of the cerebellum were freeze-dried for assay of cGMP with a commercial RIA kit (NEN). Statistics (Dunett's t-test) were performed as described previously [P. L. Wood et al., Neurochem., 19, 975-982 (1980)]. ED50 values were calculated from log-logit transformation of the dose-response data."}}, "data": [{"smiles": "O=C(O)c1cn2c(CP(=O)(O)O)cccc2n1", "note": "[Example 7, 5-(phosphonomethyl)imidazo[1,2-a]pyridine-2-carboxylic acid]", "values": [{"measurement": "Protected from ECS (% of Mice)", "setting": "[1]; 10 mg/kg s.c.", "value": 20, "unit": "%"}, {"measurement": "Protected from ECS (% of Mice)", "setting": "[1]; 32 mg/kg s.c.", "value": 60, "unit": "%"}, {"measurement": "Protected from ECS (% of Mice)", "setting": "[1]; 56 mg/kg s.c.", "value": 90, "unit": "%"}, {"measurement": "Protected from ECS (% of Mice)", "setting": "[1]; 100 mg/kg s.c.", "value": 100, "unit": "%"}, {"measurement": "ED50", "setting": "[1]; Mus musculus, sc, 0.5 h, s.c., doses in mg/kg, 95% CI 12.3-32.9, read-out: Protected from ECS ED50", "value": 21.8, "unit": "mg/kg"}, {"measurement": "protection against tonic hindlimb extensor seizures (in words)", "setting": "[1]; s.c.", "value": "protected against tonic hindlimb extensor seizures in a dose-dependent fashion"}, {"measurement": "Ki", "setting": "AMPA", "value": "> 300", "unit": "µM"}, {"measurement": "ED50", "setting": "cGMP in cerebellum; Mus musculus, sc, 0.5 h, 30 min prior to sacrifice, read-out: Decrease in cGMP ED50", "value": 18.3, "unit": "mg/kg"}, {"measurement": "brain bioavailability (in words)", "setting": "cGMP in cerebellum; by decrease of cGMP in mouse cerebellum, s.c.", "value": "brain bioavailable"}, {"measurement": "potency relative to CPP (in words)", "setting": "cGMP in cerebellum; s.c., cerebellar cGMP", "value": "in the same range of potency as the known NMDA antagonist CPP"}]}]}
